The text below walks through data of patent EP0525768A1, “Tetralones with pharmacological activity” (J. URIACH & CIA. S.A., priority 1991, dated 1993).

Assay [1] deals with Spontaneously hypertense rats. In words: Test 2: Lowering of the arterial pressure in conscious hypertense rats. As to conditions: caudal artery, 3 animals, value ± SEM. The class given is in vivo, rat. Here is the method:
Test 2: Lowering of the arterial pressure in conscious hypertense rats.
Spontaneously hypertense rats (between 200 and 250 g of body weight) of more than 8 weeks of age have been used. Diastolic and systolic arterial pressure of the rat was measured at the caudal artery using a special sphygnomanometer (Letica 5007 and 5007/4) attached to the animal's tail. To ensure rapid and reliable data, animals were placed in a heating plate at 37 °C, with the aim to produce a vasodilatation that ensured a better fixation of the rat tail to the transducer chamber. During the experiment, rats are conscious and fixed to a clamp. The tested products were administered orally. Arterial pressure was measured every 30 minutes and 10 minutes before the administration of the tested compound. The decrease of the arterial pressure was calculated for each compound at a dose of 1 mg/Kg, using 3 animals.

Assay [2] deals with portal vein isolated from rat. The assay can be described thus: Test 1: Inhibition of the contraction induced by noradrenaline in portal vein isolated from rat. As to conditions: 0.5 h. As to the method: Test 1: Inhibition of the contraction induced by noradrenaline in portal vein isolated from rat.
Portal vein was extracted from adult male rats (between 200 and 250 g of body weight), which had been stunned by a blow in the head. Portal vein was installed into an isolated organ bath (Letica) containing a physiological saline solution (Hamilton et al., Br. J. Pharmacol., 1986, 88, 103-111) at 37 C and a gas bubbler (5% C02 and 95% 02). Contractions were induced by noradrenaline (3µM) and were reverted after thoroughly washing with physiological saline solution. Portal vein contraction was measured with an isometric force transducer and with an initial tension of 1 g. After two contractions with noradrenaline, performed in order to measure the tissue's basal response, the tested compounds were incubated for 30 minutes and a new contraction was induced.

For assay [3], the system named is trachea isolated from guinea pig. In words: Test 3: Direct relaxation of the trachea isolated from guinea pig. As to conditions: 50% of the maximum relaxation, maximum = relaxation induced by isoproterenol at 1x10-6 M, cumulative addition. Here is the method: Test 3 -Direct relaxation of the trachea isolated from guinea pig.
This test was performed according to the experimental model described by Emmerson, J. and Mackay, D. (J. Pharm. Pharmacol., 1979, 31, 798). Tracheas were extracted from male guinea pigs of 400 g of body weight, which had been stunned by a blow in the head. Then, tracheas were cut in zigzag and placed into an isolated organ bath (Letica) containing Krebs-Henseleit solution at 37 °C and were bubbled with carbogen (95% 02 and 5% C02). The relaxation of the trachea was measured using an isometric force transducer. The basal tension was 0.5 g.

As for `CC1(C)C(=O)c2ccc(Br)cc2[C@@H](Oc2ccc(O)nn2)[C@@H]1O` (relative stereo) [Compound 8, Trans-6-bromo-2,2-dimethyl-3-hydroxy-4-(6-hydroxy-3-pyridazinyloxy)-1,2,3,4-tetrahydronaphthalen-1-one], the “Pressure Decrease (mm Hg) ± SEM (1 mg/Kg p.o.)” value in assay [1] came out at 46.5 ± 0.3 mm Hg. In addition, the IC50 in assay [2] turned out to be 0.8 µM. For the same molecule, the EC50 in assay [3] (Cavia porcellus) stood at 15.6 µM.

Take `CC1(C)C(=O)c2ccc(C#N)cc2[C@@H](NC(=O)c2cccnc2)[C@@H]1O` (relative stereo) [Compound 15, Trans-2,2-dimethyl-3-hydroxy-1-oxo-4-(3-pyridylcarbonylamino)-1,2,3,4-tetrahydronaphthalen-6-carbonitrile]: in assay [1], the “Pressure Decrease (mm Hg) ± SEM (1 mg/Kg p.o.)” value is 50.0 ± 9.8 mm Hg. Further, it took 2.8 µM to reach half-maximal inhibition in assay [2] (IC50). In assay [3] (Cavia porcellus), this molecule returned an EC50 of 4.9 µM.

`CC1(C)C(=O)c2ccc(C#N)cc2C(Nc2cc(Cl)ncn2)C1O` (stereo not drawn) [Compound 23]: the “Pressure Decrease (mm Hg) ± SEM (1 mg/Kg p.o.)” value in assay [1] came to 45.5 ± 11.5 mm Hg. The molecule further displayed an IC50 in assay [2] of 3.7 µM. For the same molecule, the EC50 in assay [3] (Cavia porcellus) came out at 4.4 µM.

`CC1(C)C(=O)c2ccc(C#N)cc2[C@@H](NC(=O)c2ccoc2)[C@@H]1O` (relative stereo) [Compound 17, Trans-2,2-dimethyl-4-(3-furylcarbonylamino)-3-hydroxy-1-oxo-1,2,3,4-tetrahydronaphthalen-6-carbonitrile]: in assay [1], the “Pressure Decrease (mm Hg) ± SEM (1 mg/Kg p.o.)” value was 58.0 ± 17.5 mm Hg.

Regarding `C=CCn1nc(O[C@@H]2c3cc(C#N)ccc3C(=O)C(C)(C)[C@H]2O)ccc1=O` (relative stereo) [Compound 5, Trans-2,2-dimethyl-3-hydroxy-4-[6-hydroxy-1-(2-propenyl)-3-pyridazinyloxy]-1-oxo-1,2,3,4-tetrahydronaphthalen-6-carbonitrile], in assay [1], the “Pressure Decrease (mm Hg) ± SEM (1 mg/Kg p.o.)” value stood at 20.5 ± 0.5 mm Hg. In addition, half-maximal inhibition in assay [2] (IC50) was put at 14 µM. Besides, the EC50 in assay [3] (Cavia porcellus) was determined as 3.3 µM.

Regarding `CC1(C)C(=O)c2ccc(C#N)cc2[C@@H](Oc2ccccn2)[C@@H]1O` (relative stereo) [Compound 11, Trans-2,2-dimethyl-3-hydroxy-1-oxo-4-(2-pyridyloxy)-1,2,3,4-tetrahydronaphthalen-6-carbonitrile], the “Pressure Decrease (mm Hg) ± SEM (1 mg/Kg p.o.)” value in assay [1] came to 43.0 ± 16.0 mm Hg. This molecule also displayed an IC50 in assay [2] of 25 µM. This molecule also showed an EC50 in assay [3] (Cavia porcellus) of 5.8 µM.

Take `CC1(C)C(=O)c2ccc(C#N)cc2[C@@H](Oc2ccc(O)nn2)[C@@H]1O` (relative stereo) [Compound 1, Trans-2,2-dimethyl-3-hydroxy-4-(6-hydroxy-3-pyridazinyloxy)-1-oxo-1,2,3,4-tetrahydronaphthalen-6-carbonitrile]: the “Pressure Decrease (mm Hg) ± SEM (1 mg/Kg p.o.)” value in assay [1] was found to be 116.0 ± 5.9 mm Hg. Further, in assay [2], the IC50 stood at 8.8 µM. The molecule also came in with an EC50 in assay [3] (Cavia porcellus) of 5.2 µM.

As to `COc1ccc(C(=O)N[C@@H]2c3cc(C#N)ccc3C(=O)C(C)(C)[C@H]2O)cc1` (relative stereo) [Compound 19, Trans-2,2-dimethyl-3-hydroxy-4-(4-methoxyphenylcarbonylamino)-1-oxo-1,2,3,4-tetrahydronaphthalen-6-carbonitrile], the “Pressure Decrease (mm Hg) ± SEM (1 mg/Kg p.o.)” value in assay [1] came out at 46.7 ± 8.6 mm Hg. Besides, the IC50 in assay [2] stood at 12 µM. In addition, the midpoint of the response in assay [3] (Cavia porcellus), the EC50, lay at 0.3 µM.

As to `CC1(C)C(=O)c2ccc(C#N)cc2[C@@H](NC(=O)c2ccccc2)[C@@H]1O` (relative stereo) [Compound 18, Trans-2,2-dimethyl-3-hydroxy-1-oxo-4-(phenylcarbonylamino)-1,2,3,4-tetrahydronaphthalen-6-carbonitrile], in assay [1], the “Pressure Decrease (mm Hg) ± SEM (1 mg/Kg p.o.)” value worked out at 31.0 ± 11.9 mm Hg. A half-maximal effect in assay [3] (Cavia porcellus) (EC50) was put at 2.1 µM.

`CC1(C)C(=O)c2ccc(C#N)cc2[C@@H](OC2=CC(=O)CC2)[C@@H]1O` (relative stereo) [Compound 12, Trans-2,2-dimethyl-3-hydroxy-1-oxo-4-(3-oxo-1-cyclopent-1-enyloxy)-1,2,3,4-tetrahydronaphthalen-6-carbonitrile]: the “Pressure Decrease (mm Hg) ± SEM (1 mg/Kg p.o.)” value in assay [1] was found to be 50.0 ± 16.0 mm Hg.

In the case of `Cn1nc(O[C@@H]2c3cc(C#N)ccc3C(=O)C(C)(C)[C@H]2O)ccc1=O` (single isomer, unassigned) [Compound 3, (-)-Trans-2,2-dimethyl-3-hydroxy-4-(6-hydroxy-1-methyl-3-pyridazlnyloxy)-1-oxo-1,2,3,4-tetrahydronaphthalen-6-carbonitrile], the 50% effective concentration (EC50) in assay [3] amounted to 0.3 µM.

In the case of `Cn1nc(O[C@@H]2c3cc(C#N)ccc3C(=O)C(C)(C)[C@H]2O)ccc1=O` (single isomer, unassigned) [Compound 4, ( + ).Trans-2,2-d i methyl-3-hyd roxy-4-(6-hydroxy-1-methyl-3-pyridazinyloxy)-1-oxo-1,2,3,4-tetrahydronaphthalen-6-carbonitrile], the EC50 in assay [3] was determined as 4.6 µM.

With `CC(=NC#N)NC1c2cc(C#N)ccc2C(=O)C(C)(C)C1O` (stereo not drawn) [Compound 22, Trans-4-(N-cyanoacetimidoylamino)-2,2-dimethyl-3-hydroxy-1-oxo-1,2,3,4-tetrahydronaphthalen-6-carbonitrile], in assay [3] (Cavia porcellus), the response was half-maximal at 1.8 µM (EC50). In other words, the single-digit micromolar range.

On to `CC1(C)C(=O)c2ccc(C#N)cc2[C@@H](NC(=O)c2ccccn2)[C@@H]1O` (relative stereo) [Compound 14, Trans-2,2-dimethyl-3-hydroxy-1-oxo-4-(2-pyridylcarbonylamino)-1,2,3,4-tetrahydronaphthalen-6-carbonitrile], for which, in assay [1], the “Pressure Decrease (mm Hg) ± SEM (1 mg/Kg p.o.)” value is recorded as 71.7 ± 14.2 mm Hg. This molecule also gave an IC50 in assay [2] of 23 µM.

With `Cn1nc(O[C@@H]2c3cc(C#N)ccc3C(=O)C(C)(C)[C@H]2O)ccc1=O` (racemic) [Compound 2, Rac-Trans-2,2-dimethyl-3-hydroxy-4-(6-hydroxy-1-methyl-3-pyridazinyloxy)-1-oxo-1,2,3,4-tetrahydronaphthalen-6-carbonitrile], in assay [1], the “Pressure Decrease (mm Hg) ± SEM (1 mg/Kg p.o.)” value was 112.0 ± 1.0 mm Hg. In assay [2], it took 2.8 µM to reach half-maximal inhibition (IC50). The same molecule came in with a 50% effective concentration (EC50) in assay [3] (Cavia porcellus) of 0.31 µM.
